Data: patent US9181265B2, “Substituted 2,3-dihydro-1H-benzo[a]pyrano[2,3-c]phenazines as anti-angiogenic and anti-cancer agents” (UNIVERSITE CATHOLIQUE DE LOUVAIN, priority 2010, dated 2015)
Like-named read-outs stand apart in the source and are kept apart here. Marks after values point to notes of the source that are not given here.

Key:
[1] = test system: Human umbilical vein endothelial cells (HUVEC); assay: MTT test of overall cell growth, endothelial cells, normoxic or hypoxic conditions; format: cell-based; details: for IC50: Homo sapiens; for Selectivity: if u.t.d., ratio of activity at 100 μM
Method: (§1) MTT tests were performed in order to rapidly, i.e. within 3 days, measure the effect of compounds of this invention on the overall cell growth. The test measured the number of metabolically active living cells that were able to transform the yellow product 3-(4,5-dimethylthiazol-2-yl)-2,5-diphenyl tetrazolium bromide (herein referred as MTT) into the blue product formazan dye by mitochondrial reduction. The amount of formazan obtained at the end of the experiment, measured by means of a spectrophotometer (Plate Reader Victor X4 Microplate reader (Perkin Elmer), is directly proportional to the number of living cells. Optical density determination thus enabled a quantitative measurement of the effect of the investigated compounds under control conditions (normoxia) as compared to the hypoxic conditions (0.1 or 1% O2) and/or untreated conditions.
(§2) Human umbilical vein endothelial cells (HUVEC) and six human cancer cell lines were used in the MTT tests. These cancer cell lines cover five histological cancer types including cervix (SiHa), breast (MCF-7 and MDA-MB231), prostate (PC3), glioma (U373), and colorectal (LoVo) cancers.
(§3) To perform the assay, cells were allowed to grow in 96-well microplates with a flat bottom following addition of an amount of 100 μl of cell suspension per well with 4,500 cells/well. Each cell line was seeded in its appropriate culture medium. HUVEC were cultured in a specific endothelial cell growth medium (ECACC, Sigma); SiHa cells in Glutamax-containing DMEM with 4.5 g/1 glucose (Invitrogen) supplemented with 10% Foetal Bovine Serum (PAA) and 1% penicillin+streptomycin mix (Invitrogen); MCF-7, MDA-MB-231, PC3, and LoVo cells in Glutamax-containing RPMI supplemented with 10% Foetal Bovine Serum (PAA) and 1% penicillin+streptomycin mix (Invitrogen) and U373 cells in Glutamax-containing DMEM (Invitrogen) with 5% Foetal Bovine Serum (PAA) and 1% penicillin+streptomycin mix (Invitrogen).
(§4) The detailed experimental procedure was the following: after a 24-hour period of incubation at 37° C., the culture medium was replaced by 100 μl of fresh medium in which the tested compound was previously dissolved, at the following concentrations: 10^−8 M, 5.10^−8, 10^−7, 5.10^−7, 10^−6, 5.10^−6, 10^−5, 5.10^−5 and 10^−[…]. Each experiment was performed in sestuplicates (6 times).
(§5) Cells were then incubated under normoxia in a Binder incubator (the O2 level corresponding to the concentration in the ambient air), or in a Ruskin hypoxia workstation under either 0.1% O2 (v/v) or 1% O2 (v/v). Under both conditions, the atmosphere was humidified and the CO2 concentration was fixed at 5 vol. %.
(§6) After 72 hours of incubation at 37° C. under normoxic or hypoxic conditions, with or without the compound to be tested, the medium was replaced by 100 μl of HBSS (without phenol red) containing MTT at a concentration of 0.5 or 1 mg/ml. The micro-wells were subsequently incubated during 3 hours and a half at 37° C. and centrifuged at 1300 rpm during 10 minutes. Medium was removed and formazan crystals formed were dissolved in 100 μl DMSO. The micro-wells were shaken for 5 minutes and read on a spectrophotometer at wavelengths of 570 nm (maximal formazan absorbance).
(§7) For each experimental condition, the mean optical density was calculated, allowing the determination of the percentage of living cells in comparison to the control.

MDA-MB-231 = assay: MTT test of overall cell growth, MDA-MB-231 breast cancer cells, normoxia or hypoxia; format: cell-based, human; details: for IC50: Homo sapiens; for Selectivity: MDA-MB-231, IC50 (normoxia)/IC50 (hypoxia 1% O2), if u.t.d., ratio of activity at 100 μM
Method: as §1, §2, §3, §4, §5, §6, §7

MCF-7 = assay: MTT test of overall cell growth, MCF-7 breast cancer cells, normoxia or hypoxia; format: cell-based, human; details: for IC50: Homo sapiens, MCF7; for Selectivity: MCF-7, IC50 (normoxia)/IC50 (hypoxia 1% O2), if u.t.d., ratio of activity at 100 μM
Method: as §1, §2, §3, §4, §5, §6, §7

PC3 = assay: MTT test of overall cell growth, PC3 prostate cancer cells, normoxia or hypoxia; format: cell-based, human; details: for IC50: Homo sapiens, PC-3; for Selectivity: PC3, IC50 (normoxia)/IC50 (hypoxia 1% O2), if u.t.d., ratio of activity at 100 μM
Method: as §1, §2, §3, §4, §5, §6, §7

LoVo = assay: MTT test of overall cell growth, LoVo colorectal cancer cells, normoxia or hypoxia; format: cell-based, human; details: for IC50: Homo sapiens; for Selectivity: IC50 (normoxia)/IC50 (hypoxia 1% O2), if u.t.d., ratio of activity at 100 μM
Method: as §1, §2, §3, §4, §5, §6, §7

siHa = assay: MTT test of overall cell growth, SiHa cervix cancer cells, normoxia or hypoxia; format: cell-based, human; details: for IC50: Homo sapiens; for Selectivity: IC50 (normoxia)/IC50 (hypoxia 1% O2), if u.t.d., ratio of activity at 100 μM
Method: as §1, §2, §3, §4, §5, §6, §7

U373 = assay: MTT test of overall cell growth, U373 glioma cells, normoxia or hypoxia; format: cell-based, human; details: for IC50: Homo sapiens, U373 MG; for Selectivity: U373, IC50 (normoxia)/IC50 (hypoxia 1% O2), if u.t.d., ratio of activity at 100 μM
Method: as §1, §2, §3, §4, §5, §6, §7

[2] = 72 h, hypoxia 0.1% O2, 72 h, read-out: IC50 (μM) Hypoxia 0.1%
[3] = 72 h, hypoxia 1% O2, 72 h, read-out: IC50 (μM) Hypoxia 1%
[4] = 72 h, normoxia, 72 h, series compared with hypoxia 1%, read-out: IC50 (μM) Normoxia
[5] = IC50 (normoxia)/IC50 (hypoxia 0.1%)
[6] = IC50 (normoxia)/IC50 (hypoxia 1%)
[7] = MDA-MB-231, hypoxia 1% O2, 72 h, read-out: IC50 (μM) Hypoxia 1% O2
[8] = hypoxia 1% O2, 72 h, read-out: IC50 (μM) Hypoxia 1% O2
[9] = normoxia, 72 h, read-out: IC50 (μM) Normoxia
[10] = U373, hypoxia 1% O2, 72 h, read-out: IC50 (μM) Hypoxia 1% O2
[11] = 72 h, normoxia, 72 h, series compared with hypoxia 0.1%, read-out: IC50 (μM) Normoxia
[12] = MCF-7, hypoxia 1% O2, 72 h, read-out: IC50 (μM) Hypoxia 1% O2
[13] = PC3, hypoxia 1% O2, 72 h, read-out: IC50 (μM) Hypoxia 1% O2

| Compound | IC50 [1, 2] | IC50 [1, 3] | IC50 [1, 4] | Selectivity [1, 5] | Selectivity [1, 6] | IC50 (MDA-MB-231; [7]) | IC50 (μM) Normoxia (MDA-MB-231; MDA-MB-231, normoxia, 72 h) | Selectivity (MDA-MB-231) | IC50 (μM) Normoxia (MCF-7; MCF-7, normoxia, 72 h) | IC50 (μM) Normoxia (PC3; PC3, normoxia, 72 h) | IC50 (LoVo; [8]) | IC50 (LoVo; [9]) | Selectivity (LoVo) | IC50 (siHa; [8]) | Selectivity (siHa) | IC50 (μM) Normoxia (siHa; normoxia, 72 h) | IC50 (U373; [10]) | IC50 (μM) Normoxia (U373; U373, normoxia, 72 h) | Selectivity (U373) | IC50 [1, 11] | further results |
| --- | --- | --- | --- | --- | --- | --- | --- | --- | --- | --- | --- | --- | --- | --- | --- | --- | --- | --- | --- | --- | --- |
| COC(=O)c1ccc2nc3c4c(c5ccccc5c3nc2c1)OC(C)(C)[C@H]1CC[C@H](C)C[C@H]41 [Compound 11] | 65.8 µM | 10.9 µM | 149 µM | >3.4^b | 14 | 158 µM | u.t.d. | >1.44^b | u.t.d. | u.t.d. | 152 µM | 216 µM | 1.42 | 134 µM | >1.69^b | u.t.d. | 141 µM | u.t.d. | >1.61^b | – | IC50 (μM) Normoxia ([1]; normoxia, 72 h, series compared with hypoxia 0.1%): u.t.d.; IC50 (μM) Hypoxia 1% O2 (MCF-7; MCF-7, hypoxia 1% O2, 72 h): u.t.d.; IC50 (μM) Hypoxia 1% O2 (PC3; PC3, hypoxia 1% O2, 72 h): u.t.d. |
| COC(=O)c1ccc2nc3c(nc2c1)c1c(c2ccccc23)OC(C)(C)[C@H]2CC[C@H](C)C[C@H]12 [Compound 11′] | 13.6 µM | 11.8 µM | 176 µM | 16.5 | 15 | 136 µM | u.t.d. | >1.67^b | u.t.d. | u.t.d. | 154 µM | 220 µM | 1.43 | 132 µM | >1.72^b | u.t.d. | 74.9 µM | u.t.d. | >3.03^b | 225 µM | IC50 (MCF-7; [12]): 150 µM; Selectivity (MCF-7): >1.52^b; IC50 (PC3; [13]): 161 µM; Selectivity (PC3): >1.41^b |
| COc1ccc(CNC(=O)c2ccc3nc4c(nc3c2)c2c(c3ccccc34)OC(C)(C)[C@H]3CC[C@H](C)C[C@H]23)c(OC)c1 [Compound 16′] | 0.21 µM | 7.96 µM | 120 µM | 80 | 15 | 126 µM | u.t.d. | >1.38^b | u.t.d. | u.t.d. | 154 µM | 116 µM | 0.76 | 92.1 µM | >1.89^b | u.t.d. | 113 µM | u.t.d. | >1.54^b | 16.7 µM | IC50 (MCF-7; [12]): 91.2 µM; Selectivity (MCF-7): >1.91^b; IC50 (μM) Hypoxia 1% O2 (PC3; PC3, hypoxia 1% O2, 72 h): u.t.d. |
| C[C@H]1CC[C@H]2[C@H](C1)c1c(c3ccccc3c3nc4ccc(C(=O)N5CCOCC5)cc4nc13)OC2(C)C (racemic) [Compound 12′] | 0.04 µM | 0.14 µM | 4.14 µM | 105 | 29 | 1.31 µM | – | 33.85 | – | – | 1.21 µM | 10.6 µM | 8.75 | 1.17 µM | 62.07 | – | 0.61 µM | – | 15.00 | 4.24 µM | IC50 (MDA-MB-231; MDA-MB-231, normoxia, 72 h, read-out: IC50 (μM) Normoxia): 44.4 µM; IC50 (MCF-7; [12]): 1.45 µM; IC50 (MCF-7; MCF-7, normoxia, 72 h, read-out: IC50 (μM) Normoxia): 11.3 µM; Selectivity (MCF-7): 7.78; IC50 (PC3; [13]): 1.41 µM; IC50 (PC3; PC3, normoxia, 72 h, read-out: IC50 (μM) Normoxia): 15.3 µM; Selectivity (PC3): 10.86; IC50 (siHa; [9]): 72.6 µM; IC50 (U373; U373, normoxia, 72 h, read-out: IC50 (μM) Normoxia): 9.08 µM |
| COc1ccc(CNC(=O)c2ccc3nc4c5c(c6ccccc6c4nc3c2)OC(C)(C)[C@H]2CC[C@H](C)C[C@H]52)c(OC)c1 [Compound 16] | 0.09 µM | 14.4 µM | 42.6 µM | 1480 | 3 | 230 µM | u.t.d. | >1.16^b | u.t.d. | u.t.d. | – | 210 µM | <0.79^b | 138 µM | >1.92^b | u.t.d. | 234 µM | u.t.d. | >1.14^b | 129 µM | IC50 (MCF-7; [12]): 164 µM; Selectivity (MCF-7): >1.63^b; IC50 (μM) Hypoxia 1% O2 (PC3; PC3, hypoxia 1% O2, 72 h): u.t.d.; IC50 (μM) Hypoxia 1% O2 (LoVo; hypoxia 1% O2, 72 h): u.t.d. |
